Values of other authors, collected in patent US12594237B2, “Mucoadhesive gel composition” (Viramal Limited, priority 2018, dated 2026).

Settings: orally administered

CC(=O)[C@H]1CC[C@H]2[C@@H]3CCC4=CC(=O)CC[C@]4(C)[C@H]3CC[C@]12C [progesterone]
half-life in serum: about 5 minutes
